Experimental data from ChEMBL document CHEMBL1201862, “PubChem BioAssay data set” (2004).
Activity calls are given as the source filed them.

Assays:
[1] = biological target: T1, Sentrin-specific protease 1 (Homo sapiens, UniProt Q9P0U3); assay: SENP1 catalytic domain blockers, concentration series – biochemical, kinetic FRET, dose response (AID 651697); type: functional; conditions: read-out: IC50_Mean
T1 sequence (Q9P0U3 whole entry): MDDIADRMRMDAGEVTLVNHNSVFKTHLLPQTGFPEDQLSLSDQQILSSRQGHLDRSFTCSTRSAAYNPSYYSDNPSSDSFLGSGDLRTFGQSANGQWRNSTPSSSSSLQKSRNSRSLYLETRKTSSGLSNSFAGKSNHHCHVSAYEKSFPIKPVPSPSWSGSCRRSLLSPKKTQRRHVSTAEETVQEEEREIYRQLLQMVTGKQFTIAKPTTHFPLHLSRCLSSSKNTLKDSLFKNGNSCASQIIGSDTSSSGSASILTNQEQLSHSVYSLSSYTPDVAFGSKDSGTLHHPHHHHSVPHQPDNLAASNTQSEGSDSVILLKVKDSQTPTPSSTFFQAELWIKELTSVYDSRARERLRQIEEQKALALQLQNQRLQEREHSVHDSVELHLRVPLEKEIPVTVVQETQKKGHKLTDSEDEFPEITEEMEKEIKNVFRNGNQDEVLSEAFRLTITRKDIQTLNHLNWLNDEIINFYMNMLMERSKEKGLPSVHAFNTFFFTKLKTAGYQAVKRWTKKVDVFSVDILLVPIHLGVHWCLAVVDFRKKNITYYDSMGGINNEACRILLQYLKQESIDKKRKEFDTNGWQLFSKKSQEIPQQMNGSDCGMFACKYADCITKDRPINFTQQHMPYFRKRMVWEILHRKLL

[2] = biological target: T1, Sentrin-specific protease 1; assay: Dose response confirmation of small molecule inhibitors of the catalytic domain of the SUMO protease, SENP1 in a FRET assay.; type: functional; conditions: read-out: IC50_Mean
[3] = biological target: T2, Endoribonuclease toxin MazF (Escherichia coli K-12, UniProt P0AE70); assay: activation of MazEF endoribonuclease cleavage – biochemical, fluorescence, single-stranded RNA substrate, uHTS hits, dose response (AID 588481); type: functional
T2 sequence (P0AE70 whole entry): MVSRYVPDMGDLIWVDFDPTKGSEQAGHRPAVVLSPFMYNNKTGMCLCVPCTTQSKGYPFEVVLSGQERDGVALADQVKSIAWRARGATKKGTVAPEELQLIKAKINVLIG

[4] = biological target: T3, Zinc finger protein mex-5 (Caenorhabditis elegans, UniProt Q9XUB2); assay: potency of MEX-5 RNA-binding blockers – biochemical, C. elegans, fluorescence polarization, dose response (AID 1960)
T3 sequence (Q9XUB2 whole entry): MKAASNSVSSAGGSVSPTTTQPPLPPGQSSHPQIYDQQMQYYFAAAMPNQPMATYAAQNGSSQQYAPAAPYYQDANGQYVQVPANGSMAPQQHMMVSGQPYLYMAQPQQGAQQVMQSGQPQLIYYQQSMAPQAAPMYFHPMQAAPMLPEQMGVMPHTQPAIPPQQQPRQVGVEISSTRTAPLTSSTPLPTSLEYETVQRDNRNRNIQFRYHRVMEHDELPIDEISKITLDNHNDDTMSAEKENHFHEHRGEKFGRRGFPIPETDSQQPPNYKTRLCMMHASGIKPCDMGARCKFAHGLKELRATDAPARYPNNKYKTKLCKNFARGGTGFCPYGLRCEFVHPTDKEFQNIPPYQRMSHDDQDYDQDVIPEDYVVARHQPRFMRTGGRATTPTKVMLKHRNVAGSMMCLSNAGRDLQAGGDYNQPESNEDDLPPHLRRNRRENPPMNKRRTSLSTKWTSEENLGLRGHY

[5] = biological target: T4, Corticotropin-releasing factor receptor 2/Corticotropin-releasing factor-binding protein (Homo sapiens, UniProt P24387+Q13324); assay: activators of CRF receptor 2 with binding protein – uHTS hits, confirmation (AID 602473); type: functional; conditions: read-out: EC50_Mean
T4 sequence (Q13324 whole entry): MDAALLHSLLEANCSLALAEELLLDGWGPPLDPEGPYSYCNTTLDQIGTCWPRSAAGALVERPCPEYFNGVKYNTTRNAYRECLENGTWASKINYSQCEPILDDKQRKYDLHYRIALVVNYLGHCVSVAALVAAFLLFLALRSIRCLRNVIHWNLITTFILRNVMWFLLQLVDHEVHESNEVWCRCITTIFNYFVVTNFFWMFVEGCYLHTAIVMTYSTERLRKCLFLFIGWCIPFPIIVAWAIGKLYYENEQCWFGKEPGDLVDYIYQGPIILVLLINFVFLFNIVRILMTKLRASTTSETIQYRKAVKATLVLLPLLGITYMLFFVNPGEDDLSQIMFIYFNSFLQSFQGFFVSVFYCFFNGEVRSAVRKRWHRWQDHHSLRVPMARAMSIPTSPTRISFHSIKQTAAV
T4 sequence (P24387 whole entry): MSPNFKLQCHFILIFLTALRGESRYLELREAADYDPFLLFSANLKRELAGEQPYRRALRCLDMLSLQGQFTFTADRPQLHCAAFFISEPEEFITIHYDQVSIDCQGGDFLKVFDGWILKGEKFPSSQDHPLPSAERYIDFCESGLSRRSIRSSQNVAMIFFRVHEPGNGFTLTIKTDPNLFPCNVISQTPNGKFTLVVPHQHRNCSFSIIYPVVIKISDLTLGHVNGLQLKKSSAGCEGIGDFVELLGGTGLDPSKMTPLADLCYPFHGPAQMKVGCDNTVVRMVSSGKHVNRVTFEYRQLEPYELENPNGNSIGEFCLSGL

[6] = biological target: T2, Endoribonuclease toxin MazF; assay: substrate-only fluorescence increase artefacts – biochemical, single-stranded RNase substrate, counter-screen for MazEF activator project, dose response (AID 588502); type: functional
[7] = biological target: T5, RNA-binding protein pos-1 (Caenorhabditis elegans, UniProt G5EF15); assay: disruptors of C. elegans POS-1 RNA interaction – biochemical, fluorescence polarization, dose response (AID 1964);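 also: purified POS-1 fused to maltose binding protein made in E. coli; potency of compounds blocking POS-1 binding to fluorescent RNA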
T5 sequence (G5EF15 whole entry): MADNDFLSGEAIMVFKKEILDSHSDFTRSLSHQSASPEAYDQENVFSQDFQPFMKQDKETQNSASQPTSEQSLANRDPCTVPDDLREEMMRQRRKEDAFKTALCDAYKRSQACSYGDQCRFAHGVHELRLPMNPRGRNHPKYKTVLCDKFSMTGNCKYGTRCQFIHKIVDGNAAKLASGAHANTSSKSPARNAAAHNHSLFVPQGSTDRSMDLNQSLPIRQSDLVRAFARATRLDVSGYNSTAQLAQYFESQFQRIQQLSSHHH

[8] = activation of miR-122 Renilla sensor silencing – cell-based, Huh7 psiCHECK-miR122, Renilla luciferase, cherry-picked, dose response (AID 651956); type: functional;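 also: huh7 hepatoma cells stably carrying a psiCHECK-2 miR-122 sensor plasmid; renilla luciferase signal reporting endogenous miR-122 activity after 48 h compound exposure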
[9] = biological target: T6, Aryl hydrocarbon receptor (Homo sapiens, UniProt P35869); conditions: Potency;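 also: confirmatory quantitative high-throughput screen measuring activation of the AhR signaling pathway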
T6 sequence (P35869 whole entry): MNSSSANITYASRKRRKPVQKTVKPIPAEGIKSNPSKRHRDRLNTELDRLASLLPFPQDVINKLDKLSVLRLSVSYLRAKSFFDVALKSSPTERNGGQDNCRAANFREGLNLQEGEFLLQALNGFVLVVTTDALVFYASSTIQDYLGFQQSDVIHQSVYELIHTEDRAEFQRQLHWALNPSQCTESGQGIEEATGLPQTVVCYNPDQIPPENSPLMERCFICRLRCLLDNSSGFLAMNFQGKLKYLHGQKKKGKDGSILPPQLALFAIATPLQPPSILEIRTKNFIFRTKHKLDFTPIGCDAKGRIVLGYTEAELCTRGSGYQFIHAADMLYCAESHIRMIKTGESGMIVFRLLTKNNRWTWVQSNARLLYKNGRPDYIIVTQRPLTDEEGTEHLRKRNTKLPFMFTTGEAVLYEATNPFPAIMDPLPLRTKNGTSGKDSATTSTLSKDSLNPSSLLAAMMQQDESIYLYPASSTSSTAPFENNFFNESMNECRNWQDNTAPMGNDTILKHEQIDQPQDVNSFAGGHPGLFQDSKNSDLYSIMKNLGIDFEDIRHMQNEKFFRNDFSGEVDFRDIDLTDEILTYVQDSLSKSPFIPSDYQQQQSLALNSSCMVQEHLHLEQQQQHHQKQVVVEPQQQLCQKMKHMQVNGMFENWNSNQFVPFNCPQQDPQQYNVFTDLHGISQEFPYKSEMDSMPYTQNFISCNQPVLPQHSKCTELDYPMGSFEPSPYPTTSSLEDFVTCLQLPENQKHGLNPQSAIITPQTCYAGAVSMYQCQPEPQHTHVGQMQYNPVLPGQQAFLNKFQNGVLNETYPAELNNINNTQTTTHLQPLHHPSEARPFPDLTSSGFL

## NC(=S)c1cc2cc(Br)ccc2oc1=O
[1]
  IC50: 5.2 µM (active)
[2]
  IC50: 3.31 µM (active)

## C=CCN1C(=O)/C(=C2/Sc3ccc(OC)cc3N2CC)SC1=S
[3]
  EC50: > 99 µM (inactive)
[4]
  EC50: > 300 µM (not active)
[5]
  EC50: > 53 µM (inactive)
[6]
  EC50: > 99 µM (inactive)
[7]
  EC50: > 300 µM (inconclusive)

## Cc1ccc(-c2cnc3c(c2)C(=O)N([C@H](C)CO)C[C@@H](C)[C@H](CN(C)CC2CCCCC2)O3)cc1
[8]
  AC50: 18.3 µM (active)

## O=C(C1CCOCC1)N1[C@H](CO)[C@H]2c3ccccc3NC[C@H]21
[8]
  AC50: 30 µM (active)

## C1=C/CC/C=C/CC/C=C/CC/1
[9]
  AC50: 44.7 µM (inconclusive)

## CCOP(=S)(OCC)Oc1ccc2c(C)c(Cl)c(=O)oc2c1 [COUMAPHOS]
[9]
  AC50: 0.178 µM (inconclusive)
